Reference: publication PMC7400577 (Scientific Reports, 2020)
Substitutions are numbered along the chain they refer to. Read-outs that look alike come from different tables or passages of the source.

Legend:
hGAT3 L314Q = target: T1, hGAT3 L314Q (Homo sapiens, UniProt P48066, L314Q); experiment: [3H]GABA uptake inhibition at hGAT3 L314Q transiently expressed in tsA201 cells; format: cell-based; details: 30 nM [3H]GABA, transient expression
T1 construct: expressed in transfected cells; host or cells: tsA201 cells, transient (PolyFect), pcDNA5/FRT vector
T1 sequence (P48066 1-632 L314Q): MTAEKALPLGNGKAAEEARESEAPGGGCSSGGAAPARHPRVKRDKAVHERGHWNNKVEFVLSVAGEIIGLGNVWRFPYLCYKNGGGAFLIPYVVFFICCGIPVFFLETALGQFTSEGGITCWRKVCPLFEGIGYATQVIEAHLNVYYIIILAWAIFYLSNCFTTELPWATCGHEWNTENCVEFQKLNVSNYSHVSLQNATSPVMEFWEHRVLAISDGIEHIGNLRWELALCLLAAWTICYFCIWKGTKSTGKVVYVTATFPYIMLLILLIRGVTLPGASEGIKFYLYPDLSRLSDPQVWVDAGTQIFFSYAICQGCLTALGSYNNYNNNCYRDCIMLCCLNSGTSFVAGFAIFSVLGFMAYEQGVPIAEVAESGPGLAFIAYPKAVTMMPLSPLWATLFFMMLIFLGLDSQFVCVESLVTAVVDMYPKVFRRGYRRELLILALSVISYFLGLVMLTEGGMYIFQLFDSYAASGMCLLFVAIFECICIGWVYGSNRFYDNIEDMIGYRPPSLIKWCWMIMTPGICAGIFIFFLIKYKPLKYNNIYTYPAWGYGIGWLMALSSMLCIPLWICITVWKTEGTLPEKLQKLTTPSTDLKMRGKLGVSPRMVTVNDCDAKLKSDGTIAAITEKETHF

hGAT3 wt = target: T2, hGAT3 wt (Homo sapiens, UniProt P48066); experiment: [3H]GABA uptake inhibition at wt hGAT3 transiently expressed in tsA201 cells; format: cell-based; details: 30 nM [3H]GABA, transient expression
T2 construct: expressed in transfected cells; host or cells: tsA201 cells, transient (PolyFect), pcDNA5/FRT vector
T2 sequence (P48066 1-632): T1 sequence (P48066 1-632 L314Q) with Q314L

BGT1 = details: competitive BGT1 inhibitor; cited from earlier work

Row | SMILES | IC50 (hGAT3 L314Q; read-out: IC50 GAT3 L314Q) [µM] | IC50 (hGAT3 L314Q; read-out: pIC50 ± S.E.M. GAT3 L314Q (converted)) [µM] | IC50 (hGAT3 wt; read-out: IC50 GAT3 wt) [µM] | IC50 (hGAT3 wt; read-out: pIC50 ± S.E.M. GAT3 wt (converted)) [µM] | IC50 (BGT1) [µM]
1 | NCCCC(=O)O [GABA, γ-Aminobutyric acid, reference compound] | 5.2 | 5.13 | 8.2 | 7.94 | –
2 | N[C@@]12CC[C@H](C(=O)O)[C@@H]1C2 [compound 1] | – | – | – | – | 0.59
